Test results from patent publication US20250255867A1 (Kadmon Corporation, LLC, priority 2022, published 2025).
Structures can show the parent of a compound that is named as a salt.

What was measured:
[1] = Example 1: plasma pharmacokinetics (Cmax, Tmax, AUC0-6 hr) of belumosudil and metabolites; assay type: in vivo, human
Method: Cmax was the maximum observed plasma concentration, obtained by a non-compartmental analysis. […] Timeframe: Cycles 1 and 2: pre-dose (0 hour), 1, 2, 3, 4, 5, and 6 hours post-dose on Day 1. […] Here, ‘number analyzed’=participants with available data for each specified category.
Tmax was defined as time to reach maximum observed plasma concentration, obtained by a non-compartmental analysis. […] Timeframe: Cycles 1 and 2: pre-dose (0 hour), 1, 2, 3, 4, 5, and 6 hours post-dose on Day 1. Analysis was performed on PK population. Here, ‘number analyzed’=participants with available data for each specified category.
AUC0-6 hr was defined as area under the plasma concentration versus time curve from time 0 to 6 hours post-dose, obtained by a non-compartmental analysis from the concentration-time data. […] Timeframe: Cycles 1 and 2: pre-dose (0 hour), 1, 2, 3, 4, 5, and 6 hours post-dose on Day 1. Analysis was performed on PK population. Here, ‘number analyzed’=participants with available data for each specified category.

[2] = Solubility of belumosudil mesylate; assay type: physicochemical
[3] = Cohort 1: Belumosudil 200 mg QD, Cycle 1 Day 1
[4] = Cohort 1: Belumosudil 200 mg QD, Cycle 2 Day 1
[5] = Cohort 2: Belumosudil 200 mg BID, Cycle 1 Day 1
[6] = Cohort 2: Belumosudil 200 mg BID, Cycle 2 Day 1
[7] = Cohort 3: Belumosudil 400 mg QD, Cycle 1 Day 1
[8] = Cohort 3: Belumosudil 400 mg QD, Cycle 2 Day 1

Maximum Observed Plasma Concentration (Cmax), Geometric Mean (Geometric Coefficient of Variation) [1, 3]	Maximum Observed Plasma Concentration (Cmax), Geometric Mean (Geometric Coefficient of Variation) [1, 4]	Maximum Observed Plasma Concentration (Cmax), Geometric Mean (Geometric Coefficient of Variation) [1, 5]	Maximum Observed Plasma Concentration (Cmax), Geometric Mean (Geometric Coefficient of Variation) [1, 6]	Maximum Observed Plasma Concentration (Cmax), Geometric Mean (Geometric Coefficient of Variation) [1, 7]	Maximum Observed Plasma Concentration (Cmax), Geometric Mean (Geometric Coefficient of Variation) [1, 8]	Structure (SMILES)	Area Under the Plasma Concentration Versus Time Curve From Time 0 to 6 Hours Post-dose (AUC0-6 hr), Geometric Mean (Geometric Coefficient of Variation) [1, 3]	Area Under the Plasma Concentration Versus Time Curve From Time 0 to 6 Hours Post-dose (AUC0-6 hr), Geometric Mean (Geometric Coefficient of Variation) [1, 4]	Area Under the Plasma Concentration Versus Time Curve From Time 0 to 6 Hours Post-dose (AUC0-6 hr), Geometric Mean (Geometric Coefficient of Variation) [1, 5]	Area Under the Plasma Concentration Versus Time Curve From Time 0 to 6 Hours Post-dose (AUC0-6 hr), Geometric Mean (Geometric Coefficient of Variation) [1, 6]	Area Under the Plasma Concentration Versus Time Curve From Time 0 to 6 Hours Post-dose (AUC0-6 hr), Geometric Mean (Geometric Coefficient of Variation) [1, 7]	Area Under the Plasma Concentration Versus Time Curve From Time 0 to 6 Hours Post-dose (AUC0-6 hr), Geometric Mean (Geometric Coefficient of Variation) [1, 8]	Solubility in DMF [2]	Solubility in DMSO [2]	Solubility in methanol [2]	Solubility in water [2]
208 (93.1%) nanograms per milliliter	158 (150%) nanograms per milliliter	99.2 (112%) nanograms per milliliter	145 (147%) nanograms per milliliter	388 (82.3%) nanograms per milliliter	265 (154%) nanograms per milliliter	O=C(O)COc1cccc(-c2nc(Nc3ccc4[nH]ncc4c3)c3ccccc3n2)c1 [KD025m2]	565 (90.8%) hours*nanograms per milliliter	471 (145%) hours*nanograms per milliliter	282 (125%) hours*nanograms per milliliter	513 (122%) hours*nanograms per milliliter	1150 (97.1%) hours*nanograms per milliliter	923 (144%) hours*nanograms per milliliter				
						CC(C)NC(=O)COc1cccc(-c2nc(Nc3ccc4[nH]ncc4c3)c3ccccc3n2)c1 [Belumosudil mesylate, 2-{3-[4-(1H-indazol-5-ylamino)-2-quinazolinyl]phenoxy}-N-(propan-2-yl) acetamide methanesulfonate (1:1)]							slightly soluble	soluble	slightly soluble	practically insoluble
44.4 (67.9%) nanograms per milliliter	36.2 (43.0%) nanograms per milliliter	34.8 (58.8%) nanograms per milliliter	45.0 (38.6%) nanograms per milliliter	63.9 (59.4%) nanograms per milliliter	55.8 (82.1%) nanograms per milliliter	NC(=O)COc1cccc(-c2nc(Nc3ccc4[nH]ncc4c3)c3ccccc3n2)c1 [KD025m1]	140 (72.3%) hours*nanograms per milliliter	123 (38.2%) hours*nanograms per milliliter	114 (60.8%) hours*nanograms per milliliter	160 (31.3%) hours*nanograms per milliliter	216 (61.9%) hours*nanograms per milliliter	178 (72.9%) hours*nanograms per milliliter				
